Legend:
Type in all cases: in vivo
[1] = test system: barnyardgrass (Echinochloa crus-galli); assay: Test A preemergence, barnyardgrass; conditions: 0 to 100 scale; for Barnyardgrass plant response rating: 0 is no effect, 100 is complete control
How it was run: (§1)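 Greenhouse pot test, loam/sand soil. Pre: directed soil spray at planting; post: foliar spray at 1–2 leaf stage (2–10 cm). Chemical in non-phytotoxic solvent + surfactant. Visual rating ~10 d, 0 = no effect, 100 = complete control.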

[2] = test system: sedge, umbrella (small-flower umbrella sedge, Cyperus difformis); assay: Test B flooded paddy test, umbrella sedge; conditions: Flood, 250 g ai/ha, applied to paddy water, 2-leaf stage, visual evaluation after 13 to 15 d
How it was run: (§2)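 Growth to two leaves preceded treatment. Flooding to 3 cm above soil surface, then water-applied compound; depth kept constant. Scored visually relative to controls after 13–15 d greenhouse; 100 means full control.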

[3] = test system: barnyardgrass (Echinochloa crus-galli); assay: Test A postemergence, barnyardgrass; conditions: 0 to 100 scale
How it was run: as §1

rice (Oryza sativa) = assay: Test B flooded paddy test, rice; conditions: Flood, 250 g ai/ha, applied to paddy water, 2-leaf stage, visual evaluation after 13 to 15 d
How it was run: as §2

kochia (Kochia scoparia) [4] = assay: Test A preemergence, kochia; conditions: 0 to 100 scale; for Kochia plant response rating: 0 is no effect, 100 is complete control
How it was run: as §1

[5] = test system: wheat (Triticum aestivum); assay: Test A postemergence, wheat; conditions: 0 to 100 scale
How it was run: as §1

[6] = test system: ducksalad (Heteranthera limosa); assay: Test B flooded paddy test, ducksalad; conditions: Flood, 250 g ai/ha, applied to paddy water, 2-leaf stage, visual evaluation after 13 to 15 d
How it was run: as §2

[7] = test system: galium (catchweed bedstraw, Galium aparine); assay: Test A postemergence, galium; conditions: 0 to 100 scale
How it was run: as §1

[8] = test system: ryegrass, Italian (Lolium multiflorum); assay: Test A preemergence, Italian ryegrass; conditions: 0 to 100 scale; for Ryegrass, Italian plant response rating: 0 is no effect, 100 is complete control
How it was run: as §1

[9] = test system: ryegrass, Italian (Lolium multiflorum); assay: Test A postemergence, Italian ryegrass; conditions: 0 to 100 scale
How it was run: as §1

kochia (Kochia scoparia) [10] = assay: Test A postemergence, kochia; conditions: 0 to 100 scale
How it was run: as §1

[11] = test system: pigweed (Amaranthus retroflexus); assay: Test A postemergence, pigweed; conditions: 0 to 100 scale
How it was run: as §1

[12] = test system: foxtail, giant (Setaria faberii); assay: Test A preemergence, giant foxtail; conditions: 0 to 100 scale; for Foxtail, Giant plant response rating: 0 is no effect, 100 is complete control
How it was run: as §1

[13] = test system: blackgrass (Alopecurus myosuroides); assay: Test A postemergence, blackgrass; conditions: 0 to 100 scale
How it was run: as §1

[14] = test system: ragweed (common ragweed, Ambrosia elatior); assay: Test A postemergence, ragweed; conditions: 0 to 100 scale
How it was run: as §1

[15] = test system: ragweed (common ragweed, Ambrosia elatior); assay: Test A preemergence, ragweed; conditions: 0 to 100 scale; for Ragweed plant response rating: 0 is no effect, 100 is complete control
How it was run: as §1

[16] = test system: foxtail, giant (Setaria faberii); assay: Test A postemergence, giant foxtail; conditions: 0 to 100 scale
How it was run: as §1

[17] = test system: barnyardgrass (Echinochloa crus-galli); assay: Test B flooded paddy test, barnyardgrass; conditions: Flood, 250 g ai/ha, applied to paddy water, 2-leaf stage, visual evaluation after 13 to 15 d
How it was run: as §2

corn (Zea mays) = assay: Test A postemergence, corn; conditions: 0 to 100 scale
How it was run: as §1

[18] = test system: pigweed (Amaranthus retroflexus); assay: Test A preemergence, pigweed; conditions: 0 to 100 scale; for Pigweed plant response rating: 0 is no effect, 100 is complete control
How it was run: as §1

[19] = 125 g ai/ha, 0 no effect, 100 complete control
[20] = 500 g ai/ha, 0 no effect, 100 complete control

In the case of Cc1ccc2oc([C@@H](C)Nc3ncc(C(F)(F)F)c(N)n3)cc2c1 [Compound 10], the “Plant response rating, Barnyardgrass” value ([1]; 125 g ai/ha) is reported as 20, the “Plant response rating, Barnyardgrass” value ([1]; 500 g ai/ha) is reported as 30 and the “Plant response rating, Sedge, Umbrella (0 to 100 scale, 0 is no effect, 100 is complete control)” value [2] is reported as 0. The “Plant response rating, Barnyardgrass” value ([3]; 125 g ai/ha) was 0, the “Plant response rating, Barnyardgrass” value ([3]; 500 g ai/ha) was 20 and the “Plant response rating, Rice (0 to 100 scale, 0 is no effect, 100 is complete control)” value (rice (Oryza sativa)) was 0. The “Plant response rating, Kochia” value (kochia (Kochia scoparia) [4]; 125 g ai/ha) was 0, the “Plant response rating, Kochia” value (kochia (Kochia scoparia) [4]; 500 g ai/ha) was 0 and the “Plant response rating, Wheat” value ([5]; 125 g ai/ha) was 0. The “Plant response rating, Wheat” value ([5]; 500 g ai/ha) was 0, the “Plant response rating, Ducksalad (0 to 100 scale, 0 is no effect, 100 is complete control)” value [6] was 0 and the “Plant response rating, Galium” value ([7]; 125 g ai/ha) was 50. The “Plant response rating, Galium” value ([7]; 500 g ai/ha) was 70, the “Plant response rating, Ryegrass, Italian” value ([8]; 125 g ai/ha) was 0 and the “Plant response rating, Ryegrass, Italian” value ([8]; 500 g ai/ha) was 20. The “Plant response rating, Ryegrass, Italian” value ([9]; 125 g ai/ha) was 0, the “Plant response rating, Ryegrass, Italian” value ([9]; 500 g ai/ha) was 0 and the “Plant response rating, Kochia” value (kochia (Kochia scoparia) [10]; 125 g ai/ha) was 0. For the same compound, the “Plant response rating, Kochia” value (kochia (Kochia scoparia) [10]; 500 g ai/ha) was 0, the “Plant response rating, Pigweed” value ([11]; 125 g ai/ha) was 80 and the “Plant response rating, Pigweed” value ([11]; 500 g ai/ha) was 90. The “Plant response rating, Foxtail, Giant” value ([12]; 125 g ai/ha) was 0, the “Plant response rating, Foxtail, Giant” value ([12]; 500 g ai/ha) was 60 and the “Plant response rating, Blackgrass” value ([13]; 125 g ai/ha) was 0. The “Plant response rating, Blackgrass” value ([13]; 500 g ai/ha) was 20, the “Plant response rating, Ragweed” value ([14]; 125 g ai/ha) was 20 and the “Plant response rating, Ragweed” value ([14]; 500 g ai/ha) was 80. The “Plant response rating, Ragweed” value ([15]; 125 g ai/ha) was 0, the “Plant response rating, Ragweed” value ([15]; 500 g ai/ha) was 50 and the “Plant response rating, Foxtail, Giant” value ([16]; 125 g ai/ha) was 0. The “Plant response rating, Foxtail, Giant” value ([16]; 500 g ai/ha) was 40, the “Plant response rating, Barnyardgrass (0 to 100 scale, 0 is no effect, 100 is complete control)” value [17] was 0 and the “Plant response rating, Corn” value (corn (Zea mays); 125 g ai/ha) was 0. The “Plant response rating, Corn” value (corn (Zea mays); 500 g ai/ha) was 0, the “Plant response rating, Pigweed” value ([18]; 125 g ai/ha) was 0 and the “Plant response rating, Pigweed” value ([18]; 500 g ai/ha) was 60.
In the case of Cc1nc(NC(C)c2cc3ccccc3s2)nc(N)c1C(F)(F)F (stereo not drawn) [Compound 105], the “Barnyardgrass plant response rating” value ([1]; 125 g ai/ha) is reported as 40, the “Barnyardgrass plant response rating” value ([1]; 500 g ai/ha) is reported as 60 and the “Plant response rating, Sedge, Umbrella (0 to 100 scale, 0 is no effect, 100 is complete control)” value [2] is reported as 0. For the same compound, the “Plant response rating, Barnyardgrass” value [3, 19] was 30, the “Plant response rating, Barnyardgrass” value [3, 20] was 60 and the “Plant response rating, Rice (0 to 100 scale, 0 is no effect, 100 is complete control)” value (rice (Oryza sativa)) was 0. For the same compound, the “Kochia plant response rating” value (kochia (Kochia scoparia) [4]; 125 g ai/ha) was 90, the “Kochia plant response rating” value (kochia (Kochia scoparia) [4]; 500 g ai/ha) was 100 and the “Plant response rating, Wheat” value [5, 19] was 0. For the same compound, the “Plant response rating, Wheat” value [5, 20] was 0, the “Plant response rating, Ducksalad (0 to 100 scale, 0 is no effect, 100 is complete control)” value [6] was 0 and the “Plant response rating, Galium” value [7, 19] was 90. The “Plant response rating, Galium” value [7, 20] was 90, the “Ryegrass, Italian plant response rating” value ([8]; 125 g ai/ha) was 20 and the “Ryegrass, Italian plant response rating” value ([8]; 500 g ai/ha) was 90. For the same compound, the “Plant response rating, Ryegrass, Italian” value [9, 19] was 100, the “Plant response rating, Ryegrass, Italian” value [9, 20] was 100 and the “Plant response rating, Kochia” value (kochia (Kochia scoparia) [10]; [19]) was 80. The “Plant response rating, Kochia” value (kochia (Kochia scoparia) [10]; [20]) was 100, the “Plant response rating, Pigweed” value [11, 19] was 0 and the “Plant response rating, Pigweed” value [11, 20] was 60. For the same compound, the “Foxtail, Giant plant response rating” value ([12]; 125 g ai/ha) was 40, the “Foxtail, Giant plant response rating” value ([12]; 500 g ai/ha) was 100 and the “Plant response rating, Blackgrass” value [13, 19] was 0. For the same compound, the “Plant response rating, Blackgrass” value [13, 20] was 0, the “Plant response rating, Ragweed” value [14, 19] was 70 and the “Plant response rating, Ragweed” value [14, 20] was 100. The “Ragweed plant response rating” value ([15]; 125 g ai/ha) was 100, the “Ragweed plant response rating” value ([15]; 500 g ai/ha) was 100 and the “Plant response rating, Foxtail, Giant” value [16, 19] was 0. For the same compound, the “Plant response rating, Foxtail, Giant” value [16, 20] was 60, the “Plant response rating, Barnyardgrass (0 to 100 scale, 0 is no effect, 100 is complete control)” value [17] was 0 and the “Plant response rating, Corn” value (corn (Zea mays); [19]) was 0. The “Plant response rating, Corn” value (corn (Zea mays); [20]) was 0, the “Pigweed plant response rating” value ([18]; 125 g ai/ha) was 100 and the “Pigweed plant response rating” value ([18]; 500 g ai/ha) was 100.
